Consider one molecule from patent US20220125839A1, “COMBINATION OF T-CELL THERAPY AND TARGETED THERAPY FOR TREATING THERAPY-RESISTANT MELANOMA WITH MUTATIONS IN THE BRAF GENE” (H. LEE MOFFITT CANCER CENTER AND RESEARCH INSTITUTE, INC., priority 2019, published 2022).

The subject of one assay is WM983B cells. The experiment in a line: CTL assay (51Cr release), WM983B targets with HLA-A1+ TILs. It counts as cell-based, human. To be noted: WM983B treated ON with PLX4720. As to the method: For Chromium (^51Cr) release assays, 1×10^6 human melanoma cells were incubated with 100 μCi ^51Cr (Perkin-Elmer; Cat. no. NEZ030S001MC; 1 mCi/mL) at 37° C. for 60 minutes, washed 3 times with sterile PBS and plated into 96-well round-bottom plates at a cell density of 1×10^4 tumor target cells/well. Target cells were incubated with human CD8+ TILs in triplicates at the indicated effector/target ([…]) ratios in 200 μl culture medium at 37° C. in a humidified CO2 incubator. After incubation, plates were centrifuged, 50 μl supernatant was harvested from each well and ^51Cr release was measured using a gamma counter. The percent specific lysis was calculated as follows: 100×[(experimental release−spontaneous release)/(maximum release−spontaneous release)]. As controls, T cells isolated from blood of healthy donor were used.
To investigate if M6PR has a direct role in the increased uptake of GrzB induced by PLX4720, we generated a WM983B-M6PR-KO cell line lacking M6PR expression, using Crispr/Cas9 technology. Deletion of M6PR was confirmed by western blotting (FIG. 8A) and flow cytometry (FIG. 8B). WM983B and WM983B-M6PR-KO cells were cultured with DMSO or different concentrations of PLX4720. […] We evaluated expression of MHC class I, MHC class II, PDL1, and FasL on tumor cells with overexpression or deletion of M6PR.

A further assay deals with M6PR. The experiment in a line: M6PR staining in patient derived xenografts (PDX). It counts as in vivo, mice. To be noted: PDX from four patients (4237, 3929, 4070, 4298); treated for 3 weeks. On the procedure:
FIGS. 11A, 11B, and 11 C show M6PR expression in patients treated with vemurafenib plus ACT with TIL. […] Mice with PDX were left untreated for 4 weeks (untreated), or treated for 3 weeks with corresponding single agent BRAFi (PLX-PLX4720) or combination with MEKi (CPLX-PLX4720 and PD0325901). Tissues were stained for M6PR and intensity of staining was assessed in 8 fields. Typical example of staining (scale bar=25 μm) and statistical analysis are shown. Intensity was normalized to untreated samples. Mean and SD for 8 fields are shown. P values were calculated in unpaired Student's t-test. […] H-score results are shown. P value is shown in paired twotailed Student's t test.
To test the effect of therapy on M6PR expression in clinical samples, we established patient derived xenografts (PDX) from four patients who were either treatment naïve (4237, 3929), or progressed on BRAFi (4070) or combination of BRAFi and MEKi (4298). Mice with PDX were left untreated or treated for 3 weeks with single agent BRAFi (PLX-PLX4720) or combination with MEKi (CPLXPLX4720 and PD0325901).
(In xenograft studies the graft and the host belong to different species.)

Each structure is given as a SMILES string.

In the case of `CCCS(=O)(=O)Nc1ccc(F)c(C(=O)c2c[nH]c3ncc(Cl)cc23)c1F` [PLX4720], the “killing of tumor cells by TILs” value in the assay on WM983B cells is listed as “significantly (p<0.05) increased killing”. In the assay on M6PR, the “M6PR in tumors (PDX)” value was “marked up-regulation of M6PR in tumors”.
